Assay results reported in patent US20250369032A1 (priority 2023, published 2025).
Where “and” joins values, the source holds several entries; their conditions need not be identical. Equal entries are not always repeated. Where two headings read alike, the source gives them in different places.

Key:
[1] = target: T1, alkaline phosphatase (Bos taurus, UniProt P19111); assay type: biochemical; parameters: purchased Sigma Aldrich, St. Louis, MO P0114 (original source); P7640 (second source, 'new AP' condition only)
T1 sequence (P19111 20-506): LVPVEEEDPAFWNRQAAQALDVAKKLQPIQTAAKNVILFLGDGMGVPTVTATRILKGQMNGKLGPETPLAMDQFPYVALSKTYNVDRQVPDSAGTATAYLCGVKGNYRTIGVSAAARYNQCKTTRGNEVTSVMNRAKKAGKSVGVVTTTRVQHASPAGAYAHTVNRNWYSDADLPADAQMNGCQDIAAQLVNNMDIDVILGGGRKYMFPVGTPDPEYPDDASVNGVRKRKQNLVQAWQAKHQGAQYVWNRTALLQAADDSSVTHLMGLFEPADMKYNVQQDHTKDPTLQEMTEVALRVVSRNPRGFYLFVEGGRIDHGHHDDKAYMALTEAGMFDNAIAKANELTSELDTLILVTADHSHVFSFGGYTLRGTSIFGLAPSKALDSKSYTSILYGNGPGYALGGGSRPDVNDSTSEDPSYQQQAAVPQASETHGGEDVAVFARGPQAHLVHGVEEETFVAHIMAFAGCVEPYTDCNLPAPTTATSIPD

[2] = system: skin; details: cited from earlier work
[3] = target: T1, alkaline phosphatase; assay type: biochemical; parameters: purchased Sigma Aldrich, St. Louis, MO P0114 (original source); P7640 (second source, 'new AP' condition only); details: for prediction based on OD405 values (FIG. 6D): original alkaline phosphatase 1:100 dilution; for optical density readings (FIG. 4): repeat, without discs
Source text: Our next study focused on an in vitro method of detecting the potential of dermal corrosives to inhibit nonspecific phosphatases that may be released from the skin. We decided to test pure […] instead of relying on endogenous skin phosphatase. Alkaline phosphatase (Sigma Aldrich, St. Louis, MO) was purchased and suspended to make the reaction reagent (10,000 units). […] We note that the ratio used was 0.1 g/ml or 10% chemical-which is far in excess of any pharmaceutical applications. We further note that pharmaceutical enzyme inhibition tests, studies an use involve highly specific active site binding and these assays are conducted at ratios of micrograms-femtograms per ml. These studies are done at these ranges because these are the realistic concentrations for drug applications and therapeutics. […] So when a 50 Kg human consumes the tables, the tissues will be exposed at a 5 mg/50 kg=0.1 mg/kg=0.0000001 g/ml.
Next two quantitative methods were evaluated: 1) using the discs parts from our OptiSafe™ test method and 2) directly into the 24-well plate.
• 1. Alkaline phosphatase reaction reagent • a. Take 1 vial of AP, add 1 mL of PBS, mix by pipette/re-pipette 10 times • b. To a 50 mL conical tube, add 1 mL of the AP solution prepared above and 40 mL of PBS • 2. Prepare two 24-well plates (1 with discs, 1 without discs) • 3. […] Aliquot 200 μL PNPP and PBS
• 1. Plate 1 (No Discs) • a. Add 1.25 mL from the prepared PBS-AP conical tube to each well (11 wells) • b. Add 100 μL of the test material to the well, mix with the same pipette tip, dispose and repeat for the rest of the test materials • c. Wrap the plate in saran wrap and place into the container • 2. Plate 2 (Discs) • a. Configure the 11 discs in the plate so the plate cover is stable • b. Add 1.25 mL from the prepared PBS-AP conical tube to each well (11 wells) • c. Add 100 μL of the test material to the center of the disc and repeat for the rest of the test materials • d. Put the plate cover on and place into the container • 3. […] Incubate for 1 hour
For the new study, the alkaline phosphatase was suspended in phosphate buffered saline (PBS) to make the reaction reagent. Then, 100 μL of the test chemical is added directly into the corresponding wells on a 24-well plate with 1.25 mL of alkaline phosphatase reaction reagent already aliquoted.
• 1. Alkaline phosphatase reaction reagent • a. Take 1 vial of AP, add 1 mL of PBS, mix by pipette/re-pipette 10 times • b. To a 50 mL conical tube, add 1 mL of the AP solution prepared above and 40 mL of PBS • 2. Prepare two 24-well plates • 3. […] Aliquot with 200 μL PNPP and PBS • 4. Prepare glass vials Repeat Procedure from Jan. […] 24-well plate • a. Add 1.25 mL from the prepared PBS-AP conical tube to each well (11 wells) • b. Add 100 μL of the test material to the well, mix with the same pipette tip, dispose and repeat for the rest of the test materials • c. Wrap the plate in saran wrap and place into the container • 2. […] To the prepared 96-well plate with 200 μL PNPP or PBS, add 20 μL from the 24-well plate • 4. Incubate for 1 hour • 5.
• 1. 24-well plate • a. Add 1.25 mL from the prepared PBS-AP conical tube to each well (11 wells) • b. Add 100 μL of the test material to the well, mix with the same pipette tip, dispose and repeat for the rest of the test materials • c. After 10 minutes, mix each well • 2.

[4] = target: T1, alkaline phosphatase
Procedure: Two different dosing concentrations were evaluated, 10 μL of test chemical added to 90 μL of alkaline phosphatase reaction reagent and 50 μL of test chemical added to 50 μL of alkaline phosphatase reaction reagent; all aliquoted in 96-well plates.
• 1. Alkaline phosphatase reaction reagent (fresh, 1:100) • a. Take 4 mL of AP (1:10) stock solution, add to 36 mL PBS. Vortex mix and then invert to mix 10 times • 2. Prepare alkaline phosphatase reaction reagent for every condition • a. 200 μL AP (1:10) in 1.8 mL PBS • b. […] 200 μL AP (1:10) in 1.8 mL Acetone • 3. Prepare 96-well plates for dosing • 4. Prepare 96-well plates for PNPP reading (3 wells for each test chemical) • a. Aliquot with 200 μL PNPP
• 1. Set 1 • a. 10 μL chemical added to 90 μL AP reaction reagent • 2. Set 2 • a. 50 μL chemical added to 50 μL AP reaction reagent • 3. Incubate for 3 hours • a. To the prepared 96-well plate with 200 μL PNPP aliquoted, add 20 μL • b. […] To the prepared 96-well plate with 200 μL PNPP aliquoted, add 20 μL • b.
In our next study, we focused on ethanol and buffered saline (potassium chloride, potassium phosphate monobasic, sodium chloride, sodium phosphate dibasic) as our solvents.
• 1. Alkaline phosphatase reaction reagent • a. 1:100 • i. PBS: Take 400 μL of AP (1:10) stock solution, add to 3.6 mL PBS. Vortex mix and then invert to mix 10 times • ii. […] Vortex mix and then invert to mix 10 times • b. 1:1000 • i. PBS: Take 400 μL of AP (1:100) stock solution, add to 3.6 mL PBS. Vortex mix and then invert to mix 10 times • ii. […] Vortex mix and then invert to mix 10 times • 2. Prepare 0.5 mL microcentrifuge tubes for dosing • a. One set for room temperature, one set for 37° C. • 3. Prepare 96-well plates for PNPP reading (3 wells for each test chemical) • a. Aliquot with 200 μL PNPP
• 1. In each microcentrifuge tube for each condition, add 180 μL of the corresponding AP reaction reagent • 2. Add 20 μL of the test chemical to each microcentrifuge tube • 3. Incubate for 4 hours (one set at room temperature; one set at 37° C.) • 4. To prepared 96-well plates with 200 μL PNPP aliquoted, add 20 μL of each microcentrifuge tube to the corresponding well • 5.

[5] = system: endogenous skin phosphatase; assay type: biochemical, porcine; details: optical density compared to the naïve condition
Procedure: Our next studies involved applying the test substance (500 μL) directly to the epidermis side of previously frozen porcine skin (Spear Products, Coopersburg, PA) that is placed in a holder that only exposes the epidermis side for 30 minutes, adding phosphate buffered saline (PBS) with added sodium azide (metabolic inhibitor that ensure no viable tissue), then aliquoting into cuvettes to read at an optical density of 300 nm. […] So, at the end of the initial studies described above, almost out of frustration, we tried to probe for released phosphatase activity using p-Nitrophenyl phosphate disodium salt (PNPP; Sigma Aldrich, St. Louis, MO) substrate solution to detect any presence of phosphatase.
• 1. Thaw 2 pieces of frozen porcine skin • a. Punch out as many skin discs and mount in holders • 2. Label cuvettes (3 for each chemical)
• 1. Add 500 μL of test chemical to holder; incubate at room temperate for 30 minutes • 2. After 30 minutes, add 2 mL of PBS-Azide to both the holder containing the test chemical; forcefully pipette and re-pipette 10 times • 3. From the holder, aliquot 400 μL into 3 cuvettes; forcefully pipette and re-pipette 3 times before dispensing into cuvettes
Skin corrosion by GHS Category 1 dermal corrosive chemicals results in the disintegration of the epidermis into the dermis.

[6] = system: porcine skin; details: R 1 and 2
Procedure: Our initial studies involved using fresh and frozen porcine skin “buttons”. These buttons were punched out of porcine skin (Spear Products, Cooopersburg, PA) using a […] biopsy punch tool. Three different kinds of skin buttons were prepared from fresh porcine skin, frozen porcine skin, and frozen porcine skin with the fatty layer removed. […] The next day, the tubes were taken out and vortexed and 500 μL of the solution was aliquoted into cuvettes to read at three different optical density wavelengths (OD190, OD290, OD300) to evaluate the best response.
• 1. Thaw 2 pieces of frozen porcine skin • 2. Punch out buttons: 24 buttons in each tube filled with 40 mL PBS-Azide
• 1. Plate layout for dosing:
• 1. Dose each tissue with 140 μL of test chemical • 2.
• 1. Take out of incubator and vortex pulse 3× • 2. Aliquot 500 μL to cuvette and read results at OD190, OD290, and OD300
There were three readings done at an optical density of 190, 290, and 300 nm to evaluate the best response. […] To address the variable exposure conditions, our next studies involved placing a larger porcine skin section into a holder that exposes only the epidermis side with no potential for test chemical exposure from the backside or through the sides.

[7] = 1:100, 20 μL into 180 μL, 0.5 mL microcentrifuge tubes, 4 hours RT, PNPP 60 min, 405 nm
[8] = average of R1-R3, 1:100, 20 μL into 180 μL, 4 hours RT, PNPP 60 min, 405 nm
[9] = original alkaline phosphatase 1:1, 18 hours room temperature
[10] = 10-minute test chemical exposure
[11] = fresh porcine skin, 140 μL, 18 hours at 37° C. in PBS-Azide
[12] = frozen porcine skin with fat layer removed
[13] = 18 hours 37° C., PNPP 1 hour, 405 nm
[14] = 4 mL glass vials, 30 μL into 300 μL, 1:100, 4 hours room temperature, 3 mL PNPP 1 hour
[15] = skin, chemical lists of the protocols

Structure (SMILES): CC(C)(C)c1ccccc1O [2-tert-Butylphenol]
- A1-Results R1 [1, 7]: 0.437
- A1-Results R3 [1, 7]: 0.607
- A1-Results AVG [1, 8]: 0.524
- prediction based on OD405 values (FIG. 6B) [1, 9]: incorrectly predicted
- in vivo GHS ([2]; rabbit, in vivo): Cat. 1B/1C
- prediction based on OD405 values (FIG. 6D) [3]: correctly predicted

Structure (SMILES): CN(C)Cc1ccccc1 [N,N-Dimethylbenzylamine]
- OD405 reading (FIG. 9B) [4]: 0.587
- OD405 readings (FIG. 11D) [4]: 3.429 and 3.249 and 3.164
- A1-Results AVG [1]: 3.240
- A1-Results R1 [1]: 3.265
- A1-Results R3 [1]: 3.230
- OD405 readings (FIG. 6D) [1]: 3.431 and 3.502 and 3.61
- OD405 readings (FIG. 11B) [1]: 3.360 and 3.238 and 3.273
- prediction based on OD405 values (FIG. 6B) [1]: incorrectly predicted

Structure (SMILES): CC(=O)O [Acetic acid]
- percent of phosphatase measured (first reading) [5]: 19.1%
- percent of phosphatase measured (second reading) [5]: 18.6%
- percent of phosphatase measured, average [5]: 18.9%
- A1-Results AVG [1]: 0.096
- A1-Results R1 [1]: 0.096
- A1-Results R3 [1]: 0.096
- optical density readings (FIG. 3A) [1]: 0.106 and 0.102 and 0.103
- Corrosive ([2]; rabbit, in vivo): Yes
- optical density readings (FIG. 3B) [3]: 0.104 and 0.129 and 0.101

Structure (SMILES): ClCCCCBr [1-Bromo-4-chlorobutane]
- OD405 reading (FIG. 9B) [4]: 0.799
- A1-Results R1 [1, 7]: 3.387
- A1-Results R3 [1, 7]: 3.502
- A1-Results AVG [1, 8]: 3.464

Structure (SMILES): CN(C)CCCNCCCN [Dimethyldipropylenetriamine]
- percent of phosphatase measured (first reading) [5]: 23.5%
- percent of phosphatase measured (second reading) [5]: 17.7%
- percent of phosphatase measured, average [5]: 20.6%
- A1-Results R1 [1, 7]: 0.118
- A1-Results R3 [1, 7]: 0.124
- 1-hour PNPP incubation readings (FIG. 5B) [1, 10]: 0.352 and 0.283 and 0.333
- 4-hour PNPP incubation readings (FIG. 5C) [1, 10]: 0.122 and 0.116 and 0.114
- A1-Results AVG [1, 8]: 0.121
- optical density readings (FIG. 3B) ([1]; without discs, 100 μL into 1.25 mL reaction reagent (10,000 units), 18 hours 37° C., PNPP 1 hour, 405 nm): 0.138 and 0.176 and 0.133
- Corrosive ([2]; Table 2): Yes
- OD190 [6, 11]: >3A
- OD290 [6, 11]: 0.922 and 1.016
- OD300 [6, 11]: 0.819 and 0.887
- OD190 [6, 12]: 0.610 and 0.594
- OD290 [6, 12]: 0.238 and 0.170
- OD300 [6, 12]: 0.162 and 0.118
- OD190 ([6]; frozen porcine skin): >3A
- OD290 ([6]; frozen porcine skin): 0.936 and 0.775
- OD300 ([6]; frozen porcine skin): 0.806 and 0.636
- 10-minute PNPP incubation readings (FIG. 5A) [3, 10]: 3.449 and 3.502 and 3.500
- 18-hour PNPP incubation readings (FIG. 5D) [3, 10]: 0.112 and 0.105 and 0.110
- prediction based on OD405 values (FIG. 6C) ([3]; original alkaline phosphatase 1:10 dilution): mispredicted
- prediction based on OD405 values (FIG. 6D) [3]: correctly predicted
- optical density readings (FIG. 4) [3, 13]: 0.132 and 0.128 and 0.127
- optical density readings (FIG. 3A) ([3]; with discs, 100 μL into 1.25 mL reaction reagent (10,000 units), 18 hours 37° C., PNPP 1 hour, 405 nm): 0.152 and 0.159 and 0.140

Structure (SMILES): Cc1ccc(C(C)C)cc1O
- OD405 readings (FIG. 11D) [4, 14]: 3.444 and 3.465 and 3.398
- A1-Results R1 [1, 7]: 0.211
- A1-Results R3 [1, 7]: 0.272
- OD405 readings (FIG. 11B) [1, 14]: 1.990 and 1.926
- A1-Results AVG [1, 8]: 0.242
- prediction based on OD405 values (FIG. 6B) [1, 9]: incorrectly predicted
- OD405 readings (FIG. 6D) ([1]; original alkaline phosphatase 1:100 (100 units), 100 μL into 1 mL, 18 hours room temperature, PNPP 1 hour): 0.991 and 0.974 and 1.167
- in vivo GHS [2, 15]: Cat. 1B/1C

Structure (SMILES): C=CCCC=C [1,5-Hexadiene]
- OD405 reading (FIG. 7A) [4]: 1.702
- OD405 reading (FIG. 7B) [4]: 2.947
- A1-Results R1 [1, 7]: 3.502
- A1-Results R3 [1, 7]: 3.498
- A1-Results AVG [1, 8]: 3.496

Structure (SMILES): NCCO [Ethanolamine]
- percent of phosphatase measured (first reading) [5]: 20.1%
- percent of phosphatase measured (second reading) [5]: 19.6%
- percent of phosphatase measured, average [5]: 19.9%
- optical density readings (FIG. 3A) [1]: 0.170 and 0.166 and 0.172
- Corrosive ([2]; rabbit, in vivo): Yes
- optical density readings (FIG. 3B) [3]: 0.174 and 0.185 and 0.175

Structure (SMILES): [K+].[OH-] [Potassium hydroxide (10%)]
- A1-Results R1 [1, 7]: 0.118
- A1-Results R3 [1, 7]: 0.112
- A1-Results AVG [1, 8]: 0.114
- in vivo GHS [2, 15]: Cat. 1B (Category 1B (corrosive responses in at least one animal during exposure period of ≤1 hour))
- prediction based on OD405 values (FIG. 6D) [3]: correctly predicted
- optical density readings (FIG. 4) [3, 13]: 0.123 and 0.124
